# Several values for one entry are separate records, joined by “and”; a condition that tells them apart may be missing. Identical values can stand only once. Like-named read-outs stand apart in the source and are kept apart here. Marks after values point to notes of the source that are not given here.
# Assays:
# tyrosinase = biological target: T1, tyrosinase (Homo sapiens, UniProt P14679); assay: Inhibiting activity on tyrosinase in cultures of normal human melanocytes; format: cell-based
# T1 construct: cultures of normal human melanocytes; endogenous in cells; host or cells: normal human melanocytes
# From the text: Gamma aminobutyric acid as well as its salts and derivatives used in such compositions has been studied on isolated cells and namely on cultures of normal human melanocytes. […] The obtained results are a function of the doses what is in favour of a specific effect of gamma-aminobutyric acid on this kind of parameters.
# normal human melanocytes [1] = assay: Melanomodulating effect: intracellular melanine/proteins ratio in normal human melanocytes in monolayer culture (72 h); format: cell-based
# From the text: The search of a “melanomodulating” effect has been performed in two steps: • melanomodulating effect of the active ingredients taken separately at predetermined concentrations in the cytotoxicity tests. • Melanomodulating effect of the complex, i.e. GABA in admixture with the other ingredients, white mulberry, lemon and lactic acid.
# These tests have been performed on a model of normal human melanocytes cultured on monolayer cultures.
# Gamma aminobutyric acid, lemon extract and white mulberry extract have been solubilized and directly diluted in the culture medium.
# In this method the ratio melanine/proteins is determined as a percentage of the controls.
# The effect of a complex containing the active ingredients A (gamma aminobutyric acid), C, D and lactic acid (composition E) has also been evaluated as a comparating element, on the synthesis of melanine in a model of normal human melanocytes cultured in a monolayer culture.
# The tested compositions have therafter been directly diluted in the incubation medium for the melanocytes at a concentration of 0.1, 0.5 and 1% (v/v).
# Normal human melanocytes have been utilized stemming from a young patient. They have been cultured in a monolayer culture until of a confluence of 80%.
# 1—Dosage of Melanine: • at the end of the incubation period, the intra cellular content of melanine has been quantified after cellular lysis, using a spectrophotometric measure at 405 nm.
# 2—Dosage of the Proteins: • at the end of incubation period the proteins contained in the cellular lysates have been determined using a spectrocolometric method based on Coomassie Blue according to the method of Bradford M. (Anal. Biochem. 72 (1976) 248-254).
# normal human melanocytes [2] = details: for Dose from which a cytotoxic effect is detected (less than 80% of the viable cells still present) / Percentage of viability (vs controls), Mean: human, 72 h
# Experimental: The determination is performed with normal human melanocytes obtained from a young patient. For the performance of the tests, the cells have been cultured until obtention of confluent mono-layers.
# As a comparison one has prepared a 10% solution of kojic acid and a 30% solution of lactic acid (composition E).
# The tested preparations have been then directly diluted in the incubation medium for the melanocytes.
# At the end of the incubation period, the viability of the cells has been evaluated using a spectrophotometric method for dosing the activity of the intracellular phosphatases. According to the method of Yan T. et al. (Anal. Biochem. 24 (1996) 103-108), one doses the p-nitrophenol resulting from the conversion of the phosphate of p-nitrophenol by means of the intracellular phophatases of the viable cells present in the wall of culture.
# T1 sequence (P14679 19-529): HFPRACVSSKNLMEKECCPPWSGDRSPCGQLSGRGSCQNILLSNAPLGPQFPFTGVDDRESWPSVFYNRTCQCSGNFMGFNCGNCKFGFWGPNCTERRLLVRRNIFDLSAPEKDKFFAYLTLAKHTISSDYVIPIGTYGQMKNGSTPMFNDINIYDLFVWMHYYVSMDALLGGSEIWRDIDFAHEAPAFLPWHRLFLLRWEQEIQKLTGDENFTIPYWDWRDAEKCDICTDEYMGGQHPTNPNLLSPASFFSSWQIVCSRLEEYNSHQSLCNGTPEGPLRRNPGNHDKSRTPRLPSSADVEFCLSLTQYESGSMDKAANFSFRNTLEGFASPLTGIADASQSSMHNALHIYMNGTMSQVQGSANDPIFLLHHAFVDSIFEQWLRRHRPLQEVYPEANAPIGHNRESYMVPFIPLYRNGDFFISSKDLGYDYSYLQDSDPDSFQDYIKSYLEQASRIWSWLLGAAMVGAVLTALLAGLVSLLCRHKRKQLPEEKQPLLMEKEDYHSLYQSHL
smiles,measurement,setting,value
"NCCCC(=O)O [A, gamma aminobutyric acid]","Inhibiting activity on tyrosinase, result in words",tyrosinase,inhibiting activity on tyrosinase
same,Concentration from which results on ratio melanine/proteins are statistically significant,"normal human melanocytes [1]; Step 1, 72 h",0.1%
same,"Ratio Melanine Proteins (% of the controls), Mean","normal human melanocytes [1]; Step 1, A 0.001% (w/v), 72 h, mean",101.9 % of the controls
same,Ratio Melanine Proteins (% of the controls),"normal human melanocytes [1]; Step 1, A 0.001% (w/v), 72 h, single values",98.8 % of the controls and 108.6 % of the controls and 98.3 % of the controls
same,"Ratio Melanine Proteins (% of the controls), Mean","normal human melanocytes [1]; Step 1, A 0.01% (w/v), 72 h, mean",96.6 % of the controls
same,Ratio Melanine Proteins (% of the controls),"normal human melanocytes [1]; Step 1, A 0.01% (w/v), 72 h, single values",87.0 % of the controls and 101.8 % of the controls and 101.1 % of the controls
same,"Ratio Melanine Proteins (% of the controls), Mean","normal human melanocytes [1]; Step 1, A 0.1% (w/v), 72 h, mean",74.0* % of the controls
same,Ratio Melanine Proteins (% of the controls),"normal human melanocytes [1]; Step 1, A 0.1% (w/v), 72 h, single values",74.3 % of the controls and 76.4 % of the controls and 74.2 % of the controls and 71.3 % of the controls
same,"Intra cellular content of melanine in the cultured cells, result in words",normal human melanocytes [1]; cultured normal human melanocytes,clear decrease
same,Dose from which a cytotoxic effect is detected (less than 80% of the viable cells still present),normal human melanocytes [2],0.5%
"CC(O)C(=O)O (stereo not shown) [E, lactic acid]","Cytotoxicity, result in words",normal human melanocytes [2],clearly cytotoxic
same,Dose from which a cytotoxic effect is detected (less than 80% of the viable cells still present),normal human melanocytes [2],0.03%
same,"Percentage of viability (vs controls), Mean",normal human melanocytes [2]; 0.003 % (v/v),80.8%
same,"Percentage of viability (vs controls), Mean",normal human melanocytes [2]; 0.03 % (v/v),73.2%
same,"Percentage of viability (vs controls), Mean",normal human melanocytes [2]; 0.075 % (v/v),70.8%
same,"Percentage of viability (vs controls), Mean",normal human melanocytes [2]; 0.15 % (v/v),65.9%
same,"Percentage of viability (vs controls), Mean",normal human melanocytes [2]; 0.3 % (v/v),6.2%
same,"Percentage of viability (vs controls), Mean",normal human melanocytes [2]; 0.75 % (v/v),2.4%
same,"Percentage of viability (vs controls), Mean",normal human melanocytes [2]; 1.5 % (v/v),0.2%
same,"Percentage of viability (vs controls), Mean",normal human melanocytes [2]; 3 % (v/v),0.8%
"O=c1cc(CO)occ1O [Kojic Acid, Kojic acid]","Ratio melanine/Proteins (% of the controls), Mean","normal human melanocytes [1]; Step 1, Kojic Acid 250 μM in DMSO, 72 h, mean",77.40* % of the controls
same,"% of the controls (mean ratio melanine/proteins, controls = 100)","normal human melanocytes [1]; Step 2, Kojic Acid 250 μM, 72 h",84.5 % of the controls
same,"Ratio melanine/Proteins (% of the controls), Mean","normal human melanocytes [1]; Step 2, Kojic Acid 250 μM, 72 h, mean (controls mean 119.2)",100.8* % of the controls
same,Ratio melanine/Proteins (% of the controls),"normal human melanocytes [1]; Step 2, Kojic Acid 250 μM, 72 h, single values",106.3 % of the controls and 93.2 % of the controls and 102.8 % of the controls and 94.1 % of the controls and 97.9 % of the controls
same,Decrease of the intra cellular content of melanine in the culture cells,"normal human melanocytes [1]; Step 2, Kojic acid at 250 μM, 72 h, p<0.05",15.5%
